Assay results taken from paper PMC9511493, “2-(Fluoromethoxy)-4′-(S-methanesulfonimidoyl)-1,1′-biphenyl (UCM-1306), an Orally Bioavailable Positive Allosteric Modulator of the Human Dopamine D1 Receptor for Parkinson’s Disease” (Journal of Medicinal Chemistry, 2022).
Values joined by “and” are separate entries in the source; they are usually repeats but may differ in a detail not shown here. Equal values may be shown once. “Also recorded” adds a separate entry of the source. Read-outs that look alike come from different tables or passages of the source.

Legend:
[1] = test system: C57BL/6J mice; test: cocaine-induced hyperlocomotion assay; type: in vivo, mouse; conditions: 1 mg/kg ip
Method: The experiment was conducted in adherence to the European Communities Council Directive (86/609/ECC) and Spanish regulations (BOE 252/34367-91, 2005) for the use of laboratory animals. The assay was performed according to a previously reported method[57] using 3 month old male mice with C57BL/6J background, and 8 mice were used for each experimental condition. All mice were handled and habituated to the injection procedures once per day for 5 days prior to behavioral testing. Experiments were carried out between 8:00 and 20:00, and the animals were acclimated to the experimental room for 30 min each day. Performance in the open field was recorded by a computer-based video tracking system (Smart v2.5, Panlab, Barcelona, Spain). Four open fields (50 × 50 × 50 cm, Panlab) with gray backgrounds were used, and the maximum light intensity in the center of the open field was 100 lux. Animals received a dose of 26 (1 mg/kg, ip) in a volume of 20 mL/kg of sterile saline as the vehicle, 15 min prior to a dose of cocaine (20 mg/kg, sc). Five min after cocaine injection, animals were placed in the open field and locomotion was measured at […] along a 30-min period of analysis. Horizontal locomotion was measured as total distance traveled (cm).

[2] = test system: reserpinized C57BL/6 mice; test: locomotor activity in reserpinized mice; type: in vivo, mouse
Method: (§1) The study was carried out in male C57BL/6 wild-type (22–25 g) mice that were acclimatized for 5 days. Animals were randomized based on body weight into six groups (G1 to G6), ten animals per group (n = 10), being group G1 the naïve control group. Animals were fed with standard diet ad libitum. Animals were dosed with subcutaneous administration of reserpine (2.5 mg/kg in DMSO/saline) and after 20 h they were treated with a vehicle (10 mL/kg, po), compound 26 (30 mg/kg, po), L-DOPA (100 or 400 mg/kg, ip) + carbidopa (100 mg/kg, ip) and/or their combination, as indicated in Figure 7. The vehicle employed for compound 26 administration was 5% NMP + 5% solutol HS-15 + 90% normal saline. L-DOPA and carbidopa were administered 30 min prior to start of locomotor activity recording. Compound 26 was administered and 15 min later, mice were placed in the locomotor activity cage to measure the locomotor activity for 60 min (total distance travelled) using ALL Maze version 0.5 automated software enabled with video tracking system. After the activity sessions, raw data were reduced using ALL Maze 5.0 software and Microsoft Excel. Statistical analysis was done with GraphPad Prism-5 using one way ANOVA followed by Dunnett’s test/Tukey’s post hoc test and/or two-way ANOVA followed by Bonferroni post hoc test. Data were considered statistically significant, if P value was less than 0.05.

[3] = plasma, brain and CSF levels after a single oral dose in mice; type: in vivo, mouse
Method: Prior to the evaluation of the new D1R PAM 26 in animal models, the in vivo cerebrospinal fluid (CSF) and brain permeability were studied. […] Concentrations in the CSF and brain were quantifiable up to 4 h. Brain-to-plasma concentration ratios were in the range of 0.55–1.15 between 0.5 and 4 h and CSF-to-plasma concentration ratio in the range of 0.13–0.21 between 0.5 and 4 h.
Figure 5 Compound levels in the plasma, brain, and CSF of mouse administered with 5 mg/kg (po) of compound 26. Horizontal dotted line indicates the EC50 value of the compound.

[4] = plasma and brain concentrations in the locomotor activity study; type: in vivo, mouse; conditions: 30 mg/kg po; for concentration at 30 min / concentration at 60 min: male, C57BL/6, mouse, po, 30 mg/kg
Method: Regarding the PD model, reserpine is an alkaloid known to induce hypomobility/akinesia and rigidity, and reserpinized rodents are widely used as a preclinical model for PD.
as §1, with “0.05. […]” for “0.05.”
Table S2.Plasma and brain concentrations achieved for compound 26in the locomotor
Plasma concentration (ng/mL) Brain concentration (ng/mL)
Animal 30 min 60 min Animal 30 min 60 min

## CS(=N)(=O)c1ccc(-c2ccccc2OCF)cc1 (centres unmarked) [Compound 26, 2-(Fluoromethoxy)-4′-(S-methanesulfonimidoyl)-1,1′-biphenyl]
[1]; 15 min before cocaine 20 mg/kg sc
  effect on cocaine-induced hyperlocomotion: potentiated the hyperlocomotion induced by cocaine; also recorded: enhanced cocaine (20 mg/kg, sc)-induced hyperlocomotion
[1]; no cocaine
  intrinsic locomotor activity, compound alone: no intrinsic locomotor activity
[2]; after oral dose administration, 30 mg/kg
  adverse effects observed in the animals: no sign of adverse effects
[2]; reserpine 2.5 mg/kg sc, 26 30 mg/kg po plus L-DOPA 100 or 400 mg/kg ip
  effect on locomotor activity in combination with L-DOPA: moderate synergistic effect
[2]; reserpine 2.5 mg/kg sc, 26 30 mg/kg po, L-DOPA 100 or 400 mg/kg ip
  recovery of decreased locomotor activity, substance alone: small recovery of decreased locomotor activity
[3]; 5 mg/kg po
  CSF-to-plasma free concentration ratio: approximately 1
[3]; 5 mg/kg po, male BALB/c mice
  time up to which CSF concentrations were quantifiable: 4 h
  time up to which brain concentrations were quantifiable: 4 h
  time up to which plasma concentrations were quantifiable: 8 h
[3]; male, BALB/c, mouse, CSF and plasma, 5 mg/kg po, between 0.5 and 4 h, read-out: CSF-to-plasma concentration ratio
  Kp: 0.13 to 0.21
[3]; male, BALB/c, mouse, brain and plasma, 5 mg/kg po, between 0.5 and 4 h, read-out: brain-to-plasma concentration ratio
  Kp at 4 h: 0.55 to 1.15
[3]; mouse, plasma, 5 mg/kg single oral dose, male BALB/c mice
  Tmax at 8 h: 30 min
[4]; 30 min
  Brain concentration (ng/mL), individual animals 1-3: 7185.33 ng/mL and 5537.43 ng/mL
  Plasma concentration (ng/mL), individual animals 1-3: 9994.87 ng/mL and 7753.96 ng/mL
[4]; 60 min
  Brain concentration (ng/mL), individual animals 1-3: 5552.94 ng/mL and 2620.14 ng/mL and 4178.34 ng/mL
  Plasma concentration (ng/mL), individual animals 1-3: 6716.72 ng/mL and 6187.65 ng/mL and 1662.96 ng/mL
[4]; brain, 30 min, read-out: Brain concentration (ng/mL), individual animals 1-3
  concentration at 30 min: 7340 ng/mL
[4]; brain, 30 min, read-out: Brain concentration (ng/mL), mean
  concentration at 30 min: 6690 ng/mL
[4]; brain, 60 min, read-out: Brain concentration (ng/mL), mean
  concentration at 60 min: 4120 ng/mL
[4]; plasma, 30 min, read-out: Plasma concentration (ng/mL), individual animals 1-3
  concentration at 30 min: 9690 ng/mL
[4]; plasma, 30 min, read-out: Plasma concentration (ng/mL), mean
  concentration at 30 min: 9150 ng/mL
[4]; plasma, 60 min, read-out: Plasma concentration (ng/mL), mean
  concentration at 60 min: 4860 ng/mL
other
  melting point: 144 to 145 °C
